Tests used:
[1] = Nuclease stability in HeLa cytoplasmic/nuclear extracts; type: in vitro ADME; settings: cell extract diluted 1.4 times; oligonucleotide 20 μM
Method: The nuclease stability of Oligomer 51 and the conjugate were tested against Oligomer 50 in HeLa cytoplasmic/nuclear extracts. The cell extract was diluted 1.4 times. The final concentration of oligonucleotide was 20 μM. The half lives of the oligonucleotides were as follows: Oligomer 50, 1.0 hrs.; Oligomer 51, 3.5 hrs.; and Conjugate 1, 3.6 hrs.

MDR1 mRNA = MDR1 mRNA expression by Northern blotting in MDR 3T3 cells; type: cell-based, human; settings: for MDR1 mRNA Level (arbitrary units) / % Control (MDR1 mRNA): oligonucleotide 1 μm, 24 hours, with Lipofectin; for MDR1 mRNA Level (arbitrary units): serum free medium; for % Control (MDR1 mRNA): control = untreated cells
Method: NIH 3T3 cells transfected with a plasmid containing the human MDR1 gene (pSK1 MDR) have been previously described (Kane et al., Gene, 1989, 84, 439). These cells have proven to be useful models for the study of multi-drug resistance phenomena. Cells were grown in DMEM media containing 10% fetal bovine serum (FBS) and 60 ng/ml colchicine in an atmosphere of 95% air, 5% CO2.
Cells were grown in […] flasks.
To measure MDR1 mRNA expression by Northern blotting, total cellular RNA was isolated by lysis in 4M guanidium isothiocyanate followed by a cesium chloride gradient, and the RNA was resolved on 1.2% agarose gels containing 1.2% formaldehyde and transferred to nitrocellulose membranes (Dean et al., J. Biol. Chem., 1994, 269, 16416). The blots were hybridized with a ^32P radiolabeled human MDR1 cDNA probe. The MDR1 cDNA probe was isolated by performing a polymerase chain reaction on the pSK1 MDR plasmid, as described previously (Alahari et al., Nucl. Acids Res., 1993, 21, 4079). The following oligonucleotide primers were used for PCR: […]
The resulting fragment was checked on an agarose gel and was radiolabeled with ^32P-dCTP using a commercially available random primer labeling kit (Amersham, Arlington Heights, Ill.) according to the manufacturer's instructions. The filters were hybridized overnight in hybridization buffer (25 mM KPO4, pH 7.4; 5×SSC; 5×Denhardt's solution, 100 ug/ml Salmon sperm DNA and 50% formamide) (Alahari et al., Nucl. Acids Res., 1993, 21, 4079). This was followed by two washes with 1×SSC, 0.1% SDS and two washes with 0.25×SSC, 0.1% SDS. Hybridizing bands were visualized by exposure to X-OMAT AR film and quantitated using a PhosphorImager™ (Molecular Dynamics, Sunnyvale, Calif.). To confirm equal loading of RNA, the blots were stripped and reprobed with a ^32P-labeled beta-actin probe (Clontech, Palo Alto, Calif).
In initial experiments, the MDR 3T3 cells were exposed to 1.0 μm concentrations of several different antisense oligonucleotides, or control oligonucleotides, in the presence of 20 ug/ml LIPOFECTIN® for 24 hours. […] NIH 3T3 cells transfected with pSK1 MDR plasmid were grown to 90% confluence and treated with oligonucleotide (1 μm) for 24 hours in the presence of Lipofectin® in serum free medium. Total RNA was isolated and fractionated on agarose formaldehyde gels and blotted onto nitrocellulose membranes. These membranes were probed with a ^32P radiolabeled 1.0 kb MDR1 cDNA, and then stripped and reprobed with a ^32P radiolabeled beta-actin cDNA probe to confirm equal loading of RNA, allowing the levels of MDR1 transcripts to be normalized with regard to the beta-actin bands. Transcript levels were quantitated using a PHOSPHORIMAGER™ (Molecular Dynamics, Sunnyvale, Calif.); the values are expressed in arbitrary units (the beta-actin transcripts were essentially constant).

complementary RNA = assay: Melting analysis (Tm) of 5-LO antisense sequence oligomers against complementary RNA; type: binding; settings: 4 μM each strand, 100 mM NaCl, 10 mM Phosphate, 0.1 mM EDTA, pH 7.0
Method: (§1) The relative ability of oligonucleotides to bind to their complementary strand is compared by determining the melting temperature of the hybridization complex of the oligonucleotide and its complementary strand. The melting temperature (Tm), a characteristic physical property of double helices, denotes the temperature in degrees centigrade at which 50% helical versus coil (un-hybridized) forms are present. Tm is measured by using the UV spectrum to determine the formation and breakdown (melting) of hybridization. Base stacking, which occurs during hybridization, is accompanied by a reduction in UV absorption (hypochromicity). Consequently, […]. The higher the Tm, the greater the strength of the binding of the strands. Non-Watson-Crick base pairing has a strong destabilizing effect on the Tm. Consequently, absolute fidelity of base pairing is necessary to have optimal binding of an antisense oligonucleotide to its targeted RNA.
(§2) The test oligonucleotides (either the phosphodiester, phosphorothioate, cholic acid conjugated phosphodiester, cholic acid conjugated phosphorothioate or 5′-aminolink intermediate phosphodiester or phosphorothioate oligonucleotides of the invention or otherwise) and either the complementary DNA or RNA oligonucleotides were incubated at a standard concentration of 4 μM for each oligonucleotide in buffer (100 mM NaCl, 10 mM Na-phosphate, pH 7.0, 0.1 mM EDTA). Samples were heated to 90 degrees C. and the initial absorbance taken using a Guilford Response II spectro-photometer (Corning, Inc., Corning, N.Y.). Samples were then slowly cooled to 15° C. and then the change in absorbance at 260 nm was monitored during the heat denaturation procedure. The temperature was elevated 1 degree/absorbance reading and the denaturation profile analyzed by taking the 1st derivative of the melting curve. Data was also analyzed using a two-state linear regression analysis to determine the Tm's. The results of these tests are shown in Table 3 as are the HPLC retention times of certain of the test compounds.

complementary DNA = assay: Melting analysis (Tm) of 5-LO antisense sequence oligomers against complementary DNA; type: binding; settings: 4 μM each strand, 100 mM NaCl, 10 mM Phosphate, 0.1 mM EDTA, pH 7.0
Method: as §1, §2

P-glycoprotein = P-glycoprotein expression by Western blotting in MDR 3T3 cells; type: cell-based, human; settings: maximum only after 72 hours exposure
Method: Transfected MDR NIH 3T3 cells were grown and treated with oligonucleotides as described in Example (9)(B). In order to measure P-glycoprotein expression by Western blotting, cells were seeded in 60 mm dishes at 1.2×10^6 per dish and incubated for 24 hours in serum containing medium. The cells were treated with the oligomers for various times in serum free medium as described above. Cells were then extracted in lysis buffer (20 mM Tris, pH 7.5, 2 mM EDTA, 500 mM EGTA, 2 mM PMSF, 1 mM DTT, aprotonin (10 ug/ml), 0.5% Triton-X) and sonicated briefly. The lysate was spun in a microfuge tube for 20 minutes at 4° C. and the resulting supernatant was checked for protein content. Equal amounts of protein (usually 20 ug) were mixed with SDS sample buffer and boiled. Protein samples were separated by 8% SDS PAGE and the resolved proteins were electrophoretically transferred onto polyvinyllidene fluoride membranes (Millipore, Bedford, Mass.). The membranes were blocked (with 3% BSA, 2% non fat dry milk in PBS) and then treated with 2 ug/ml C219 anti-P-glycoprotein antibody (Signet, Dedham, Mass.). After washing three times with 0.1% Tween 20, the membranes were incubated with rabbit anti-mouse antibody (Cappel, Durham, N.C.). Immunoreactive proteins were visualized either by ECL (Enhanced Chemiluminescence, Amersham, Arlington Heights, Ill.) or with ^125I secondary antibodies.

ICAM-1 protein = settings: LPS-induced livers, HRP-conjugated secondary antibodies
mouse ICAM-1 mRNA = assay: ICAM-1 mRNA levels in LPS-treated mice (Northern analysis); type: in vivo; settings: liver; 30 mg/kg i.v. 24 and 2 hours prior to LPS
Method: Mice were treated with oligonucleotides and examined as follows. […] Then, to induce ICAM-1 expression, bacterial lipopolysaccharide (LPS) was injected into the mice. After 2 hours, the mice were sacrificed, and particular organs, or specific portion thereof, were removed for further study. RNA was prepared from isolated, homogenized tissues essentially according to the guanidinium/CsCl purification method of Chirgwin et al. (Biochemistry, […], 18, 5294), electrophoresed and transferred to nylon membranes for hybridization studies (Northern analysis) according to methods well known in the art. In order to detect mouse ICAM-1 mRNA, a radiolabelled probe was prepared by random oligonucleotide-primed synthesis using a mouse ICAM-1 clone as a template. The blots were stripped and reprobed with a ^32P-labeled glyceraldehyde 3-phosphate dehydrogenase (G3PDH) probe (Clontech Laboratories, Inc., Palo Alto, Calif.) in order to confirm equal loading of RNA and to allow the levels of ICAM-1 transcripts to be normalized with regard to the G3PDH signals. Hybridizing bands were visualized by exposure to X-OMAT AR film and quantitated using a PHOSPHORIMAGER™ essentially according to the manufacturer's instructions (Molecular Dynamics, Sunnyvale, Calif.).

Substance: 5′-GCC-TTT-CGC-GAC-CCA-ACA-CU [Oligomer 50, reference compound]
- half life [1]: 1.0 h

Substance: CTC-CCG-CAC-ATC-TCC-GCG-CC (CTCCCGCACATCTCCGCGCC; all phosphorothioate, sugars by position and methylation of C not given here) [ISIS 10222, reference compound]
- MDR1 mRNA Level (arbitrary units) (MDR1 mRNA): 406,522 arbitrary units
- % Control (MDR1 mRNA) (MDR1 mRNA): 86%

Substance: 5′-TCC-AGG-TGT-CCG-CAT-C-3′ (antisense TCCAGGTGTCCGCATC; phosphodiester, phosphorothioate or 5'-aminolink variants, which one is not given here, further chemistry not given here) [Oligomer 37]
- Tm RNA (complementary RNA; listed as 37): 55.8 degrees centigrade
- Tm DNA (complementary DNA; listed as 37): 56.3 degrees centigrade

Substance: 5′-TCC-AGG-TGT-CCG-CAT-C-3′ (antisense TCCAGGTGTCCGCATC; 5' cholic acid conjugate, chemistry not fully specified) [Oligomer 36, 5′-terminus cholic acid conjugate, phosphodiester]
- Tm RNA (complementary RNA): 62.4 degrees centigrade
- Tm DNA (complementary DNA): 63.4 degrees centigrade

Substance: 5′-GCC-TTT-CGC-GAC-CCA-ACA-CU* [Oligomer 51]
- half life [1]: 3.5 h

Substance: GTT-CAC-TGG-CGC-TTT-GTT-CC (GTTCACTGGCGCTTTGTTCC; all phosphorothioate, sugars by position and methylation of C not given here) [ISIS 5998]
- effect on MDR1 mRNA expression (MDR1 mRNA; parent phosphorothioate, Example 9(B)): unpromising effect on MDR1 mRNA expression

Substance: CGG-TCC-CCT-TCA-AGA-TCC-AT (CGGTCCCCTTCAAGATCCAT; all phosphorothioate, sugars by position and methylation of C not given here) [ISIS 10440]
- reduction of P-glycoprotein (Western assays) (P-glycoprotein): about 50%

Substance: 5′-TCC-AGG-TGT-CCG-CAT-C-3′ (antisense TCCAGGTGTCCGCATC; phosphodiester, phosphorothioate or 5'-aminolink variants, which one is not given here, further chemistry not given here) [Oligomer 33, reference compound]
- Tm RNA (complementary RNA; listed as 33): 54.9 degrees centigrade
- Tm DNA (complementary DNA; listed as 33): 55.4 degrees centigrade

Substance: 5′-TCC-AGG-TGT-CCG-CAT-C-3′ (antisense TCCAGGTGTCCGCATC; phosphodiester, phosphorothioate or 5'-aminolink variants, which one is not given here, further chemistry not given here) [Oligomer 32, parent 5-LO antisense compound, normal phosphodiester linkages, reference compound]
- Tm RNA (complementary RNA; listed as 32): 62.0 degrees centigrade
- Tm DNA (complementary DNA; listed as 32): 62.6 degrees centigrade

Substance: GAG-CCG-CTA-CTC-GAA-TGA-GC (GAGCCGCTACTCGAATGAGC; all phosphorothioate, sugars by position and methylation of C not given here) [ISIS 5990]
- MDR1 mRNA Level (arbitrary units) (MDR1 mRNA): 443,478 arbitrary units
- % Control (MDR1 mRNA) (MDR1 mRNA): 94%

Substance: 5′-GCG-TTG-CTC-TTC-TTC-TTG-CG [ISIS 13293, reference compound]
- ICAM-1 staining of liver sections (ICAM-1 protein): appear quite dark
- reduction of hepatic ICAM-1 mRNA relative to LPS without oligonucleotide (mouse ICAM-1 mRNA): no apparent effect

— patent US20040142899A1, “Compositions and methods for enhanced biostability and altered biodistribution of oligonucleotides in mammals” (ISIS Pharmaceuticals, Inc., priority 1990, published 2004)
